Where two headings read alike, the source gives them in different places.
Assays:
[1] = biological target: T1, DNA-PK phosphorylation at Serine 2056 (Homo sapiens, UniProt P78527); assay: Cellular Assay for Inhibition of DNA-PK Phosphorylation at Serine 2056 in FaDu cells (sandwich ELISA, neocarzinostatin); assay type: cell-based; conditions: pSer2056 DNA-PK
T1 construct: FaDu cells were purchased from ATCC; host or cells: FaDu
In short: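 FaDu cells pre-treated with compound (0.3% DMSO) for 1 h, then neocarzinostatin 1 μg/mL final added for 2 h to induce DSBs. Protein-normalised lysates read by sandwich ELISA for total and pSer2056 DNA-PK; % inhibition normalised between DMSO and NCS controls, IC50 from variable-slope log(inhibitor) fit.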

DNA-PK = biological target: T2, DNA-PK (Homo sapiens, UniProt P78527); assay: DNA-PK Assay for Biochemical Enzymatic Inhibition (ADP Glo Kinase assay); conditions: DNA-PK enzyme
T2 construct: purchased Invitrogen PR9107A
In short: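 Human DNA-PK (25 ng) preincubated 15 min with compounds (ten three-fold dilutions) in HEPES pH 7.5, MgCl2, KCl, calf thymus DNA buffer, then substrate 434.4 μM and ATP 64.4 μM (final) for 60 min at room temperature. ADP-Glo luminescence; percent inhibition fitted by four-parameter regression for IC50.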

[2] = Microsomal Stability Assay, mouse liver microsomes; assay type: in vitro ADME; conditions: for microsomal CLint at 0.1 uM: male, CD-1, pH 7.4
Experimental: (§1) Samples were then mixed and centrifuged. Supernatants were used for HPLC-MS/MS analysis. […] Peak areas corresponding to the test compound were recorded.

[3] = Microsomal Stability Assay, human liver microsomes; assay type: in vitro ADME; conditions: for microsomal CLint at 0.1 uM: both sexes, pH 7.4
Experimental: as §1

[4] = tested on: pDNA-PK induction in HCT116 tumour spheroids; assay: Multicellular tumour spheroid + radiation, pDNA-PK (ser2056) inhibition, immunohistochemical endpoint, HCT116; assay type: cell-based; conditions: Homo sapiens, 20 Gy, 20% O2
In short: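 HCT116 spheroids (~0.5 mm) in MEM/10% FBS, 20% O2, 37° C., pre-incubated 1 h with compound (10 or 5 μM down to 3.5 nM), irradiated 20 Gy, then 2 h further with compound. Cryosections immunostained for pDNA-PK ser2056; EC50 is concentration halving radiation-induced pDNA-PK.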

[5] = Hepatocyte Stability Assay, human hepatocytes; assay type: in vitro ADME
Experimental: (§2) Cryopreserved mouse hepatocytes were obtained from a pool of 10 or more male CD-1 mice. Cryopreserved human hepatocytes were obtained from a pool of 10 or more donors of mixed gender. Final hepatocyte density was 0.7 million viable cells per mL and test compound concentration was 1 uM with a maximum of 0.01% DMSO. Cryopreserved hepatocytes were thawed, washed, and resuspended in Krebs-Heinslet buffer (pH 7.3). The reaction was initiated by adding the test compound into cell suspension and incubated for 0, […], 1, 1.5, and 2 h, respectively, at 37° C./5% C02. The reaction was stopped by adding acetonitrile into the incubation mixture. Samples were then mixed, transferred completely to another 96-well plate, and centrifuged. Supernatants were used for HPLC-MS/MS analysis. […] Peak areas corresponding to the test compound were recorded.

[6] = Hepatocyte Stability Assay, mouse hepatocytes; assay type: in vitro ADME
Experimental: as §2

[7] = neocarzinostatin 1 μg/mL, Table 1
[8] = mouse liver microsomes 0.1 mg/mL, 0.1 uM compound
[9] = human liver microsomes 0.1 mg/mL, 0.1 uM compound
[10] = HCT-116, 2 hours following radiation, Example 9 Study 2, read-out: Spheroid Cell line: HCT116 Immunohistochemical endpoint pDNA-PK inhibition EC50
[11] = HCT-116, Spheroid, Cell Line: HCT115 (so in the source), 2 hours following radiation, Example 7, read-out: EC50, Immunohistochemical endpoint, pDNA-PK inhibition
[12] = HCT-116, 2 h, spheroids, Example 8, read-out: Cell line: HCT116 Immunohistochemical endpoint pDNA-PK inhibition EC50
[13] = mouse liver microsomes, Example 11
[14] = human liver microsomes, Example 11

SMILES | IC50 [1, 7] | IC50 (DNA-PK; Table 1) | microsomal CLint at 0.1 uM [2, 8] | Microsomal Stability Mouse % rem. 60 min ([2]; mouse liver microsomes) | EC50 [4, 10] | EC50 [4, 11] | also measured
CN(C)C(=O)COc1ccc(N[C@H]2CC[C@@H](Oc3nc(N4CCOCC4)cc4ncccc34)CC2)nc1 [Compound 55, N,N-dimethyl-2-((6-(((1s,4s)-4-((7-morpholino-1,6-naphthyridin-5-yl)oxy)cyclohexyl)amino)pyridin-3-yl)oxy)acetamide] | 100 to 1000 nM | < 0.5 nM | > 116 µL/min/mg | E (% remaining = 0-25%) | – | – | microsomal CLint at 0.1 uM [3, 9]: > 116 µL/min/mg; Microsomal Stability Human % rem. 60 min ([3]; human liver microsomes): F (% remaining = 25-50%)
CN(C)C(=O)COc1ccnc(N[C@H]2CC[C@@H](Oc3nc(N4CCOCC4)cc4ncccc34)CC2)n1 [Compound 56, N,N-dimethyl-2-((2-(((1s,4s)-4-((7-morpholino-1,6-naphthyridin-5-yl)oxy)cyclohexyl)amino)pyrimidin-4-yl)oxy)acetamide] | 100 to 1000 nM | < 0.5 nM | > 116 µL/min/mg | E (% remaining = 0-25%) | 500 to 1000 nM | 500 to 1000 nM | microsomal CLint at 0.1 uM [3, 9]: > 116 µL/min/mg; Microsomal Stability Human % rem. 60 min ([3]; human liver microsomes): E (% remaining = 0-25%)
CON(C)C(=O)COc1cnc(N[C@H]2CC[C@@H](Oc3nc(N4CCOCC4)cc4ncccc34)CC2)nc1 [Compound 58, N-Methoxy-N-methyl-2-((2-(((1s,4s)-4-((7-morpholino-1,6-naphthyridin-5-yl)oxy)cyclohexyl)amino)pyrimidin-5-yl)oxy)acetamide] | 100 to 1000 nM | < 0.5 nM | > 116 µL/min/mg | E (% remaining = 0-25%) | 500 to 1000 nM | 500 to 1000 nM | –
NC(=O)COc1cnc(N[C@H]2CC[C@@H](Oc3nc(N4CCOCC4)cc4ncccc34)CC2)nc1 [Compound 60, 2-((2-(((1s,4s)-4-((7-Morpholino-1,6-naphthyridin-5-yl)oxy)cyclohexyl)amino)pyrimidin-5-yl)oxy)acetamide] | < 100 nM | < 0.5 nM | > 116 µL/min/mg | F (% remaining = 25-50%) | 10 to 500 nM | 10 to 500 nM | –
CONC(=O)COc1cnc(N[C@H]2CC[C@@H](Oc3nc(N4CCOCC4)cc4ncccc34)CC2)nc1 [Compound 72, N-Methoxy-2-((2-(((1s,4s)-4-((7-morpholino-1,6-naphthyridin-5-yl)oxy)cyclohexyl)amino)pyrimidin-5-yl)oxy)acetamide] | < 100 nM | 1 to 10 nM | > 116 µL/min/mg | E (% remaining = 0-25%) | 500 to 1000 nM | 500 to 1000 nM | –
O=C(COc1cnc(N[C@H]2CC[C@@H](Oc3nc(N4CCOCC4)cc4ncccc34)CC2)nc1)N1CC(F)C1 [Compound 76, 1-(3-Fluoroazetidin-1-yl)-2-((2-(((1s,4s)-4-((7-morpholino-1,6-naphthyridin-5-yl)oxy)cyclohexyl)amino)pyrimidin-5-yl)oxy)ethan-1-one] | 100 to 1000 nM | < 0.5 nM | – | – | 1000 to 10000 nM | – | hepatocyte CLint at 1 uM ([5]; both sexes, cryopreserved hepatocytes, pH 7.3, human hepatocytes 0.7 million cells per mL, 1 uM compound): < 8.2 µL/min/1e6 cells; Hepatocyte Stability Human % rem. 120 min ([5]; human hepatocytes, 120 min): G (% remaining = 50-75%); hepatocyte CLint at 1 uM ([6]; male, CD-1, cryopreserved hepatocytes, pH 7.3, mouse hepatocytes 0.7 million cells per mL, 1 uM compound): > 8.2 µL/min/1e6 cells; Hepatocyte Stability Mouse % rem. 120 min ([6]; mouse hepatocytes, 120 min): F (% remaining = 25-50%)
CN(C)C(=O)Cn1cccc1C(=O)N[C@H]1CC[C@@H](Oc2nc(N3CCOCC3)cc3ncccc23)CC1 [Compound 146, 1-(2-(dimethylamino)-2-oxoethyl)-N-((1s,4s)-4-((7-morpholino-1,6-naphthyridin-5-yl)oxy)cyclohexyl)-1H-pyrrole-2-carboxamide] | 1000 to 10000 nM | 1 to 10 nM | > 116 µL/min/mg | F (% remaining = 25-50%) | 1000 to 10000 nM | 1000 to 10000 nM | –
O=C(Nc1ccccc1)N[C@H]1CC[C@@H](Oc2nc(N3CCOCC3)cc3ncccc23)CC1 [Compound 150, 1-((1s,4s)-4-((7-Morpholino-1,6-naphthyridin-5-yl)oxy)cyclohexyl)-3-phenylurea] | 100 to 1000 nM | 0.5 to 1 nM | > 116 µL/min/mg | E (% remaining = 0-25%) | 500 to 1000 nM | 500 to 1000 nM | EC50 [4, 12]: 500 to 1000 nM
NC(=O)c1cnc2cc(N3CCOCC3)nc(O[C@H]3CC[C@@H](n4ccnc4)CC3)c2c1 [Compound 166, 5-(((1s,4s)-4-(1H-imidazol-1-yl)cyclohexyl)oxy)-7-morpholino-1,6-naphthyridine-3-carboxamide] | 10000 to 30000 nM | 1 to 10 nM | > 116 µL/min/mg | E (% remaining = 0-25%) | 10000 to 100000 nM | 10000 to 100000 nM | EC50 [4, 12]: 10000 to 100000 nM
CC(=O)NC(=O)c1cnc2cc(N3CCOCC3)nc(O[C@H]3CC[C@@H](n4ccnc4)CC3)c2c1 [Compound 167, 5-(((1s,4s)-4-(1H-imidazol-1-yl)cyclohexyl)oxy)-N-acetyl-7-morpholino-1,6-naphthyridine-3-carboxamide] | 100 to 1000 nM | 1 to 10 nM | > 116 µL/min/mg | E (% remaining = 0-25%) | 10000 to 100000 nM | 10000 to 100000 nM | EC50 [4, 12]: 10000 to 100000 nM
CONC(=O)c1cnc2cc(N3CCOCC3)nc(O[C@H]3CC[C@@H](n4ccnc4)CC3)c2c1 [Compound 171, 5-(((1s,4s)-4-(1H-imidazol-1-yl)cyclohexyl)oxy)-N-methoxy-7-morpholino-1,6-naphthyridine-3-carboxamide] | 1000 to 10000 nM | 1 to 10 nM | < 116 µL/min/mg | G (% remaining = 50-75%) | 1000 to 10000 nM | 1000 to 10000 nM | EC50 [4, 12]: 1000 to 10000 nM
CN(C)C(=O)COc1cnc(N[C@H]2CC[C@@H](Oc3nc(N4CCOCC4)cc4ncc(NS(C)(=O)=O)cc34)CC2)nc1 [LFA012, 2-[2-[[4-[[3-(Methanesulfonamido)-7-morpholino-1,6-naphthyridin-5-yl]oxy]cyclohexyl]amino]pyrimidin-5-yl]oxy-N,N′-dimethyl-acetamide] | – | – | – | – | – | – | IC50 ([1]; Table 2): 100 to 1000 nM; IC50 (DNA-PK; Table 2): < 0.5 nM; Microsomal Stability Mouse % rem. 60 min [2, 13]: H (% remaining = 75-100%); Microsomal Stability Mouse Clint [2, 13]: A (Clint < 116 uL/min/mg); Microsomal Stability Human % rem. 60 min [3, 14]: H (% remaining = 75-100%); Microsomal Stability Human Clint [3, 14]: A (Clint < 116 uL/min/mg)
CN(C)C(=O)COc1cnc(N[C@H]2CC[C@@H](Oc3nc(N4CCOCC4)cc4ncc(N)cc34)CC2)nc1 [LFA111, 2-[2-[[4-[(3-Amino-7-morpholino-1,6-naphthyridin-5-yl)oxy]cyclohexyl]amino]pyrimidin-5-yl]oxy-N,N-dimethyl-acetamide] | – | – | – | – | – | – | IC50 ([1]; Table 2): 100 to 1000 nM; IC50 (DNA-PK; Table 2): 0.5 to 1 nM; microsomal CLint at 0.1 uM [2, 13]: < 116 µL/min/mg; Microsomal Stability Mouse % rem. 60 min [2, 13]: F (% remaining = 25-50%); microsomal CLint at 0.1 uM [3, 14]: < 116 µL/min/mg; Microsomal Stability Human % rem. 60 min [3, 14]: G (% remaining = 50-75%)
CN(C)C(=O)COc1cnc(N[C@H]2CC[C@@H](Oc3nc(N4CCOCC4)cc4ncc(O)cc34)CC2)nc1 [LFA113, 2-[2-[[4-[(3-Hydroxy-7-morpholino-1,6-naphthyridin-5-yl)oxy]cyclohexyl]amino]pyrimidin-5-yl]oxy-N,N-dimethyl-acetamide] | – | – | – | – | – | – | IC50 ([1]; Table 2): < 100 nM; IC50 (DNA-PK; Table 2): < 0.5 nM; microsomal CLint at 0.1 uM [2, 13]: < 116 µL/min/mg; Microsomal Stability Mouse % rem. 60 min [2, 13]: F (% remaining = 25-50%); microsomal CLint at 0.1 uM [3, 14]: < 116 µL/min/mg; Microsomal Stability Human % rem. 60 min [3, 14]: H (% remaining = 75-100%)

Reference: patent publication US20240239790A1, “7-Morpholino-1,6-Naphthyridin-5-yl Derivatives and Pharmaceutical Compositions Thereof Useful as DNA-PK Inhibitor” (adMare Therapeutics Society, priority 2021, published 2024)
